In US20040028616A1, “Inhibition of lung metastases by aerosol delivery of p53 gene and anti-cancer compounds” (priority 2002, published 2004):

How the values were obtained:
B16-F10 lung metastases [1] = assay: Survival of B16-F10 challenged mice with PEI-p53/9NC-DLPC aerosol treatment; type: in vivo, C57BL/6 mice; conditions: aerosol treatment from day 11 for two weeks; n=10 mice per group
Description: C57BL/6 mice (n=10 mice per group) were injected via the tail vein with 25,000 B16-F10 cells on day 0 and the tumor was allowed to establish until day 10. The mice were then left untreated; or exposed to PEI-p53 aerosol complexes, to 9-nitrocamptothecin alone or to a sequential combination of p53 and 9-nitrocamptothecin, or 9-nitrocamptothecin and Neobam combination starting day 11 after tumor cell injection. Neobam was used as a negative control. The dosage was twice a week for drug or gene alone; and in combination once a week for gene and, twice a week for drug therapy. The mice were treated for two weeks, and then monitored over time for their survival.

B16-F10 lung metastases [2] = assay: In vivo effect of aerosol PEI-p53 and 9NC-DLPC on established B16-F10 lung metastases; set-up: species or system C57BL/6 mice; conditions: lower dose, agent alone
Description: C57BL/6 mice (7-8 weeks old, Harlan Sprague Dawley, Houston, Tex.) were injected via the tail vein with 25,000 B16-F10 cells on day 0. […] Animals in the single agent therapy group were administered p53 one time weekly or 9-nitrocamptothecin twice weekly.
The dosage for treatment was 2 mg plasmid/10 ml of aerosolized solution at a PEI:DNA (N:P) ratio of 10:1 for DNA, and 5 mg 9-nitrocamptothecin at a concentration of 0.5 mg/ml at a 9 nitrocamptothecin:dilauroylphosphatidylcholine weight ratio of 1:50. Aerosol delivery of drugs and genes was performed using 5% CO2-in-air for increased pulmonary deposition. On day 25-post tumor inoculation, the mice were sacrificed, lungs were fixed and the tumor index was calculated.
Tumor index was calculated by the formula: Tumor index=lung weights×average grade for the group. […] The growth of tumor contiguous to the lung was considered as a part of the lung for weighing the lungs. Values are mean+SD (n=10 mice per group).

B16-F10 cells = assay: In vitro effect of p53 gene and 9NC on B16-F10 cell proliferation (hematocytometer cell count); type: cell-based; conditions: drug >0.5 mg/ml; data not shown
Description: B16-F10 cells grown in tissue culture plates (20,000 cells/well in a 48 well plate; […] cells/well in a 12 well plate) are transfected with PEI-DNA complexes (1 μg/ml; p53 or control empty plasmid, Neo) for 24 hours. […] The proliferation of B16-F10 cells 24 hours later was evaluated using the hematocytometer. To count the cells, the cell layer was washed with PBS and then trypsinized with 0.25% trypsin. The Alamar Blue Assay (Trek Diagnostic Systems, Inc) was also performed to test the viability of the cells (data not shown).
Control groups included cells treated with the genes (p53 and Neobam) alone, or with the drug (9-nitrocamptothecin) alone, or with Neobam and 9-nitrocamptothecin in combination. […] The p53 expression levels in parental and p53 treated B16-F10 cells have been reported previously (8).

CC[C@@]1(O)C(=O)OCc2c1cc1n(c2=O)Cc2cc3c([N+](=O)[O-])cccc3nc2-1 [9-nitrocamptothecin]
mean survival time (B16-F10 lung metastases [1]): 29 ± 3 days | suppression of metastatic growth or increase of survival by single agent (B16-F10 lung metastases [2]): neither the p53 nor the 9-nitrocamptothecin alone is potent enough | inhibition of B16-F10 as single agent, increased drug concentration (B16-F10 cells): very potent inhibition
